According to patent US10568822B2, “Melanogenesis inhibitor comprising d-pantothenyl alcohol, and skin-whitening cosmetic containing same melanogenesis inhibitor” (POLA CHEMICAL INDUSTRIES, INC., priority 2014, dated 2020):

What was measured:
human normal melanocytes = assay: Melanogenesis inhibition experiment (14C-2-thiouracil incorporation); type: cell-based; details: for Melanin Amount (%) Sample (2): 1% plant extract or 0.1 μg/mL existing skin-whitening compound alone, ratio to control; for synergistic effect of a melanogenesis inhibitory action: in combination with D-pantothenyl alcohol, conclusion from Table 2
Description: According to the method described below, 2-thiouracil (^14C-labeled 2-thiouracil in the present test) which is specifically incorporated into melanin in the melanin synthesis process within cells was used to evaluate the melanogenesis inhibitory action. With a complete medium for melanocyte culture (Invitrogen Corporation) used in a 24-well plate, human normal melanocytes (Kurabo Industries, Ltd.) were seeded in each well at a concentration of 6.0×10^4 cells/well/0.5 mL. Under a 5% carbon dioxide atmosphere, the culture was conducted at 37° C. for 24 hours. Then, replacement was made such that a 0.5 mL medium containing D-pantothenyl alcohol at 0 mM or 1 mM was in each of three wells for each concentration and, to these […] wells, 0.5 μCi/well of 2-[2-^14C] thiouracil (Daiichi Clarity Co., Ltd.) was further added. And it was further cultured for 3 days under the same conditions as the aforementioned culture conditions. After completion of the culture, the culture medium was removed from each well, which was washed with PBS (phosphate-buffered saline), and the number of cells was measured using the WST-8 reagent (Dojindo Laboratories). The WST-8 reagent was removed from each well, which was washed with PBS, and using 100 (w/v) % trichloroacetic acid (Wako Pure Chemical Industries, Ltd.), the cells were separated from the bottom of the wells, to which water was then added for dilution so that the concentration of the trichloroacetic acid could be 10 (w/v) %, and which were allowed to stand in a refrigerator for 30 minutes. After the cells were recovered by centrifugation, the amount of ^14C-thiouracil in the cells recovered from each well was measured with a liquid scintillation counter (Aloka Co., Ltd.).
Relative to the radiation doses of the cells cultured in the media containing 0 mM D-pantothenyl alcohol (control), the radiation doses of the cells cultured in the media containing 1 mM D-pantothenyl alcohol were each obtained in percentage as the amount of melanin (%). In other words, it is possible to determine that the smaller the radiation dose incorporated into each cell is, the smaller the amount of melanin is, and accordingly, it is possible to determine that the melanin inhibition titer of the added ingredient is larger.
(§1) While 0 mM or 0 μM D-pantothenyl alcohol was used as a control similarly, the 1 mM D-pantothenyl alcohol in <Experiment 1> was replaced with each of the following samples (1) to (3) for experimenting.

[1] = system: human normal keratinocytes; assay: Keratinocyte cell proliferation experiment (WST-8); type: cell-based; details: for Cell Proliferation Rate (%) Sample (2): 1% plant extract or 0.1 μg/mL existing skin-whitening compound alone, ratio to control; for synergistic effect of a keratinocyte cell proliferation action: in combination with D-pantothenyl alcohol, conclusion from Table 2
Description: According to the method described below, the cell proliferation promoting action was evaluated. With a complete medium for keratinocyte culture (Kurabo Industries, Ltd.) used in a 24-well plate, human normal keratinocytes (Kurabo Industries, Ltd.) were seeded in each well at a concentration of 1.0×10^4 cells/well/1 mL. Under a 5% carbon dioxide atmosphere, the culture was conducted at 37° C. for 24 hours. Then, replacement was made such that a 1 mL medium containing D-pantothenyl alcohol at 0 μM, 15 μM, or 150 μM was in each of three wells for each concentration. And it was further cultured for 2 days under the same conditions as the aforementioned culture conditions. After completion of the culture, 20 μL of the WST-8 reagent (Dojindo Laboratories) was added to each well, and color reaction was allowed at 37° C. for 3 hours. After the reaction, absorbances at 450 nm and 650 nm were measured using a microplate reader, Benchmark Plus (Bio-Rad Laboratories), and the 450 nm absorbance measurement minus the 650 nm absorbance measurement was calculated to give a cell proliferation measurement.
Relative to the cell proliferation measurements for the wells cultured in the media containing 0 μM D-pantothenyl alcohol (control), the cell proliferation measurements for the wells cultured in the media containing D-pantothenyl alcohol were each obtained in percentage as a cell proliferation rate (%). In other words, it is possible to determine that the larger the absorbance value is, the higher the cell proliferation rate is, and accordingly, it is possible to determine that the cell proliferation promotion titer of the added ingredients is larger.
as §1
In addition, the 15 μM and the 150 μM D-pantothenyl alcohol in <Experiment 2> were replaced with the aforementioned samples (1) to (3) respectively for experimenting. Note that the amount of melanin (%) and the cell proliferation rate (%) in Table 2 are both a ratio to the control, as described in Experiment 1 and Experiment 2.

SMILES | Melanin Amount (%) Sample (2) (human normal melanocytes) | synergistic effect of a melanogenesis inhibitory action (human normal melanocytes) | Cell Proliferation Rate (%) Sample (2) [1] | synergistic effect of a keratinocyte cell proliferation action [1] | Melanin Amount (%) Sample (1) (human normal melanocytes; 1 mM D-pantothenyl alcohol alone, ratio to 0 mM control) | melanogenesis inhibitory action (human normal melanocytes; Experiment 1, 1 mM vs 0 mM, FIG. 1, result in words) | Cell Proliferation Rate (%) Sample (1) ([1]; 1 mM D-pantothenyl alcohol alone, ratio to 0 μM control) | keratinocyte cell proliferation action ([1]; Experiment 2, 15 μM or 150 μM vs 0 μM, FIG. 2, result in words)
C[C@H]1[C@H](C)CC[C@]2(C(=O)O)CC[C@]3(C)C(=CC[C@@H]4[C@@]5(C)CCC(OP(=O)(O)O)C(C)(C)[C@@H]5CC[C@]43C)[C@H]12 (stereo partly shown) [Ursolic acid phosphate ester, ursolic acid phosphate ester] | 98.4% | synergistic effect | 118.6% | synergistic effect | – | – | – | –
CCCCc1ccc(O)cc1O [4-n-butyl resorcinol] | 93.2% | synergistic effect | 120.3% | synergistic effect | – | – | – | –
CC(C)(CO)[C@@H](O)C(=O)NCCCO [D-pantothenyl alcohol] | – | – | – | – | 69.8% | has a melanogenesis inhibitory action | 123.3% | has a keratinocyte cell proliferation action
c1ccc(C(c2ccccc2)(c2ccccc2)n2ccnc2)cc1 [Compound 1, 1-(triphenylmethyl) imidazole] | 93.1% | synergistic effect | 112.1% | synergistic effect | – | – | – | –
O=C(N[C@@H](CO)C(=O)O)c1ccccc1 [Compound 31, N-benzoyl-L-serine] | 94.6% | synergistic effect | 118.7% | synergistic effect | – | – | – | –
CSCCC(NC(=O)c1ccc(C)cc1)C(=O)O (stereo not shown) [Compound 45, N-(toluyl) methionine] | 93.4% | – | 113.2% | – | – | – | – | –
